Experimental data reported in ChEMBL document CHEMBL5380860, “Design, Synthesis, and Antitumor Activity of Potent and Selective EGFR L858R/T790M Inhibitors and Identification of a Combination Therapy to Overcome Acquired Resistance in Models of Non-small-cell Lung Cancer” (J Med Chem, 2023).

Tests used:
[1] = Cytotoxicity against human A549 cells harboring wild type EGFR assessed as reduction in cell viability measured after 72 hrs by MTT assay; assay type: toxicity, cell-based
HCC827 = assay: Antiproliferative activity against human HCC827 cells harboring EGFR exon del 19 mutant assessed as reduction in cell viability measured after 72 hrs by MTT assay; assay type: functional, cell-based; settings: HCC827, 72 h
[2] = Cytotoxicity against human A-431 cells harboring wild type EGFR assessed as reduction in cell viability measured after 72 hrs by MTT assay; assay type: toxicity, cell-based
NCI-H1975 = assay: Antiproliferative activity against human NCI-H1975 cells harboring EGFR L858R/T790M mutant assessed as reduction in cell viability measured after 72 hrs by MTT assay; assay type: functional, cell-based; settings: NCI-H1975, 72 h

| IC50 (HCC827) | IC50 (NCI-H1975) | Compound | IC50 at 72 h [1] | IC50 at 72 h [2] |
| --- | --- | --- | --- | --- |
| 19 nM | 45 nM | C=CC(=O)Nc1cccc(Nc2nc(Nc3ccc(N4CCN(C)CC4)c(F)c3)nc3ccc(Cl)cc23)c1 | 1500 nM | 2310 nM |
| 3930 nM | 4620 nM | C=CC(=O)Nc1cccc(Nc2nc(Nc3ccc(N4CCC(N5CCOCC5)CC4)cc3OC)nc3ccc(F)cc23)c1 | > 10000 nM | > 10000 nM |
| 5980 nM | 6840 nM | C=CC(=O)Nc1cccc(Nc2nc(Nc3ccc(N(C)CCN(C)C)cc3OC)nc3ccc(Cl)cc23)c1 | > 10000 nM | > 10000 nM |
| 159 nM | 561 nM | C=CC(=O)Nc1cccc(Nc2nc(Nc3ccc(N4CCC(N(C)C)CC4)cc3OC)nc3ccc(Cl)cc23)c1 | 3590 nM | 5800 nM |
| 4230 nM | 4200 nM | C=CC(=O)Nc1cccc(Nc2nc(Nc3ccc(N4CCN(C)CC4)cc3)nc3cc(OC)c(OC)cc23)c1 | > 10000 nM | > 10000 nM |
| 1080 nM | 2430 nM | C=CC(=O)Nc1cccc(Nc2nc(Nc3ccc(N4CCC(N(C)C)CC4)cc3OC)nc3ccc(F)cc23)c1 | > 10000 nM | > 10000 nM |
| 98 nM | 234 nM | C=CC(=O)Nc1cccc(Nc2nc(Nc3ccc(N4CCN(C)CC4)cc3OC)nc3ccc(F)cc23)c1 | 1520 nM | 3250 nM |
| 4590 nM | 5240 nM | C=CC(=O)Nc1cccc(Nc2nc(Nc3ccc(N4CCC(N5CCOCC5)CC4)cc3OC)nc3ccc(Cl)cc23)c1 | > 10000 nM | > 10000 nM |
| 56 nM | 165 nM | C=CC(=O)Nc1cccc(Nc2nc(Nc3ccc(N4CCC(N(C)C)CC4)cc3)nc3ccc(F)cc23)c1 | 1260 nM | 1840 nM |
| 1760 nM | 2980 nM | C=CC(=O)Nc1cccc(Nc2nc(Nc3ccc(N4CCN(C)CC4)cc3)nc3ccc(OC)cc23)c1 | 3990 nM | 4820 nM |
| 950 nM | 1240 nM | C=CC(=O)Nc1cccc(Nc2nc(Nc3ccc(N(C)CCN(C)C)cc3)nc3ccc(Cl)cc23)c1 | 2300 nM | 2890 nM |
| 1680 nM | 1360 nM | C=CC(=O)Nc1cccc(Nc2nc(Nc3ccc(N4CCC(N5CCN(C)CC5)CC4)cc3OC)nc3ccc(Cl)cc23)c1 | > 10000 nM | 6600 nM |
| 20 nM | 35 nM | C=CC(=O)Nc1cccc(Nc2nc(Nc3ccc(N4CCN(C)CC4)c(F)c3)nc3ccc(F)cc23)c1 | 2470 nM | 1280 nM |
| 8860 nM | 8560 nM | C=CC(=O)Nc1cccc(Nc2nc(Nc3ccc(N4CCOCC4)cc3)nc3ccc(Cl)cc23)c1 | > 10000 nM | > 10000 nM |
| 65 nM | 174 nM | C=CC(=O)Nc1cccc(Nc2nc(Nc3ccc(N4CCC(N(C)C)CC4)cc3)nc3ccc(Cl)cc23)c1 | 1830 nM | 2020 nM |

Continued, molecule first:

| Compound | IC50 (HCC827) | IC50 (NCI-H1975) | IC50 at 72 h [1] | IC50 at 72 h [2] |
| --- | --- | --- | --- | --- |
| C=CC(=O)Nc1cccc(Nc2nc(Nc3ccc(N4CCN(C)CC4)cc3)nc3ccc(Br)cc23)c1 | 1900 nM | 2630 nM | 8710 nM | 5420 nM |
| C=CC(=O)Nc1cccc(Nc2nc(Nc3ccc(N4CCC(N5CCN(C)CC5)CC4)cc3)nc3ccc(Cl)cc23)c1 | 25 nM | 28 nM | 2100 nM | 1620 nM |
| C=CC(=O)Nc1cccc(Nc2nc(Nc3ccc(N4CCN(C)CC4)cc3)nc3c2CCN(C(=O)OC(C)(C)C)C3)c1 | > 10000 nM | > 10000 nM | > 10000 nM | > 10000 nM |
| C=CC(=O)Nc1cccc(Nc2nc(Nc3ccc(N4CCN(C)CC4)cc3)nc3c2CN(C(=O)OC(C)(C)C)CC3)c1 | 7810 nM | 8650 nM | > 10000 nM | > 10000 nM |
| C=CC(=O)Nc1cccc(Nc2nc(Nc3ccc(N4CCN(C)CC4)cc3)nc3cccc(Cl)c23)c1 | 987 nM | 1020 nM | 3880 nM | 4580 nM |
| C=CC(=O)Nc1cccc(Nc2nc(Nc3ccc(N4CCN(C)CC4)cc3)nc3c(Cl)cccc23)c1 | 4640 nM | 5630 nM | > 10000 nM | > 10000 nM |
| CC(C)=CC(=O)Nc1cccc(Nc2nc(Nc3ccc(N4CCN(C)CC4)cc3)nc3ccc(Cl)cc23)c1 | 884 nM | 874 nM | 5330 nM | 3290 nM |
| C=CC(=O)Nc1cccc(Nc2nc(Nc3ccc(N4CCN(C)CC4)cc3)nc3c2CCN(C(=O)OCc2ccccc2)C3)c1 | > 10000 nM | > 10000 nM | > 10000 nM | > 10000 nM |
| C=CS(=O)(=O)Nc1cccc(Nc2nc(Nc3ccc(N4CCN(C)CC4)cc3)nc3ccc(Cl)cc23)c1 | 1490 nM | 1030 nM | > 10000 nM | 8770 nM |
| C/C=C/C(=O)Nc1cccc(Nc2nc(Nc3ccc(N4CCN(C)CC4)cc3)nc3ccc(Cl)cc23)c1 | 221 nM | 231 nM | 3650 nM | 4530 nM |
| C=CC(=O)Nc1cccc(Nc2nc(Nc3ccc(N4CCN(C)CC4)cc3)nc3cc(OC)ccc23)c1 | 4310 nM | 7840 nM | > 10000 nM | > 10000 nM |
| C=CC(=O)Nc1cccc(Nc2nc(Nc3ccc(N4CCC(N5CCOCC5)CC4)cc3)nc3ccc(F)cc23)c1 | 2300 nM | 1600 nM | 5900 nM | 7590 nM |
| C=CC(=O)Nc1cccc(Nc2nc(Nc3ccc(N4CCOCC4)cc3)nc3ccc(F)cc23)c1 | 1380 nM | 2020 nM | 8520 nM | > 10000 nM |
| CCC(=O)Nc1cccc(Nc2nc(Nc3ccc(N4CCN(C)CC4)cc3)nc3ccc(Cl)cc23)c1 | 6480 nM | 7330 nM | > 10000 nM | > 10000 nM |
| C=CC(=O)Nc1cccc(Nc2nc(Nc3ccc(N4CCN(C)CC4)cc3)nc3ccc(C)cc23)c1 | 1550 nM | 1980 nM | 2310 nM | 1100 nM |
| C=CC(=O)Nc1cccc(Nc2nc(Nc3ccc(N4CCN(C)CC4)cc3)nc3c(F)cccc23)c1 | 2340 nM | 5480 nM | > 10000 nM | > 10000 nM |
| C=CC(=O)Nc1cccc(Nc2nc(Nc3ccc(N4CCN(C)CC4)cc3)nc3cc(Cl)ccc23)c1 | 1850 nM | 3280 nM | 5790 nM | 7620 nM |
| C=CC(=O)Nc1cccc(Nc2nc(Nc3ccc(N4CCC(N5CCN(C)CC5)CC4)cc3)nc3ccc(F)cc23)c1 | 18 nM | 24 nM | 1520 nM | 1680 nM |
| C=CC(=O)Nc1cccc(Nc2nc(Nc3ccc(N4CCN(C)CC4)cc3)nc3ccc(I)cc23)c1 | 4590 nM | 5760 nM | > 10000 nM | > 10000 nM |
| C=CC(=O)Nc1cccc(Nc2nc(Nc3ccc(N4CCN(C)CC4)cc3)nc3cccc(F)c23)c1 | 784 nM | 1000 nM | 2310 nM | 1840 nM |
| C=CC(=O)Nc1cccc(Nc2nc(Nc3ccc(N4CCN(C)CC4)cc3)nc3c2CCCC3)c1 | 2310 nM | 3420 nM | 5640 nM | 4560 nM |
